Results on five compounds are retold here after patent US4510143A, “Antiallergic pyrimido[1,2-a]quinoxalin-2-carboxylic acid derivatives” (Roussel Uclaf, priority 1982, dated 1985).

The assay has as its system passive cutaneous reaction mediated by Ig G antibodies. Briefly: Passive cutaneous anaphylaxis in the rat (PCR), inhibition of Ig G PCR after oral administration. The following applies: male Wistar rats, 4 hour sensitization, 1 mg ovalbumen challenge. The format is in vivo. The method, then: Passive cutaneous anaphylaxis in the rat (PCR)
Passive cutaneous anaphylaxis in the rat was carried out in male Wistar rats weighing 180-200 g which were sensitized by intradermal injection into four sites on shaved backs to produce a passive cutaneous reaction mediated by Ig G antibodies (a 4 hour sensitization following injection of antiserum heated at 56° C. for one hour). Antigen challenge was carried out in the same way with 1 mg of ovalbumen together with 0.5 ml of 1% Evans blue dye solution being injected intravenously and 30 minutes later, the animals were killed and the severity and area of each blue spot was scored when viewed from the reverse side of the skin.

With `O=C(Nc1nnn[nH]1)c1cnc2cnc3ccccc3n2c1=O` [Example 2, N-(5-Tetrazolyl)-1-oxo-1H-pyrimido[1,2-a]quinoxaline-2-carboxamide], the “% inhibition of Ig G PCR” value (1 mg/kg) was 29.9% and the “% inhibition of Ig G PCR” value (10 mg/kg) came out at 48.6%.
On the same counts, the results for `O=C(O)c1cnc2cnc3ccccc3n2c1=O` [Example 1, 1-oxo-1H-pyrimido[1,2-a]quinoxaline-2-carboxylic acid] are 9.9% and 50.3%.
On to `Cn1c(=O)c2ncc(C(=O)O)c(=O)n2c2ccccc21` [Example 10], for which the “% inhibition of Ig G PCR” value reads like this: (1 mg/kg) 15.6%; (10 mg/kg) 20.5%.
As for `O=C(Nc1nn[nH]n1)c1cnc2c(=O)[nH]c3ccccc3n2c1=O` [Example 9], the “% inhibition of Ig G PCR” value turned out to be 19% (0.1 mg/kg), 23% (1 mg/kg) and 35% (10 mg/kg).
On to `O=C(O)c1cnc2c(=O)[nH]c3ccccc3n2c1=O` [Example 8, 1,5-dioxo-1,6-dihydropyrimido[1,2-a]quinoxalin-2-carboxylic acid], for which the “% inhibition of Ig G PCR” value is, setting by setting: (0.1 mg/kg) 40.5%; (1 mg/kg) 52.4%; (10 mg/kg) 94.1%.
